The text below walks through data of patent publication US20050250821A1, “Quaternary ammonium compounds in the treatment of water and as antimicrobial wash” (priority 2004, published 2005).

Values after ≈ are worked out from the molar mass of the structure shown. Where only a bound is given, the exact number is not on record here.

Test [1] has as its system E. coli O157:H7 (ATCC 35150). The test is described as follows: Microtiter plate assay, CPC and propionic acid, abbreviated 4×4 matrix (Experiment 2). Type of test: cell-based. The procedure: (§1) The 4×4 matrix was either used in its entirety or in an abbreviated format as deemed appropriate by previous research conducted with similar organisms using a mixed organic acid blend.
(§2) Fifteen formulations were prepared using the incomplete 4×4 matrix design in Table 3.
(§3) Four test organisms—Salmonella Enteritidis (ATCC 13076), Staphylococcus aureus (ATCC 25923) E. coli O157:H7 (ATCC 35150) and Listeria monocytogenes (ATCC 15313)—were selected for use in these screening assays. […] Propionic acid was obtained from Kemin Americas, Inc (Des Moines, Iowa). S. Enteriditis, S. aureus and E. coli were grown aerobically in either Tryptic Soy Broth (TSB) or Nutrient Broth (NB) for 24 h at 37° C. L. monocytogenes was grown aerobically in Brain Heart Infusion Broth (BHI) for 24 h at 37° C. Test inocula were prepared to achieve a 10^6 cfu/ml suspension of bacterial cells. A Petroff Hausser counting chamber was used to determine the level of inoculum.
(§4) An Optimax microtiter plate reader (Molecular Devices, Sunnyvale, Calif.) at 405 nm wavelength was used to measure the optical density of the suspension in each well. Plates were read kinetically over 24 h. The temperature was maintained at 35° C. All results reflect the average optical density measurements of four microtiter wells. Treatments were prepared in sterile RO at the inclusion levels noted in Tables 1-2. A 100 μl aliquot of test organism and a 100 μl aliquot of experimental treatment were dispensed into individual microtiter plate wells. […] Positive controls consisting of 100 μl of test organism in NB or BHI and 100 μl of sterile water and a negative control consisting of 100 μl of NB (no organisms) and 100 μl of sterile water were also used.

The subject of test [2] is Salmonella Enteritidis (ATCC 13076). The test is described as follows: Microtiter plate assay, CPC and propionic acid, 3×3 matrix (Experiment 2). In kind it is cell-based. To be noted: propionic acid alone, previous experimentation. As to the method:
as §1
Eight formulations were prepared using the incomplete 3×3 matrix design in Table 2. […] Positive and negative controls were included as described in Experiment 1.
Propionic acid was obtained from Kemin Americas, Inc (Des Moines, Iowa). S. Enteriditis, S. aureus and E. coli were grown aerobically in either Tryptic Soy Broth (TSB) or Nutrient Broth (NB) for 24 h at 37° C. L. monocytogenes was grown aerobically in Brain Heart Infusion Broth (BHI) for 24 h at 37° C.
Plates were read kinetically over 24 h. The temperature was maintained at 35° C. […] Treatments were prepared in sterile RO at the inclusion levels noted in Tables 1-2.

Test [3] concerns Staphylococcus aureus (ATCC 25923). The test is described as follows: Microtiter plate assay, CPC and propionic acid, 4×4 matrix (Experiment 2). Type of test: cell-based. To be noted: S. aureus. As to the method: as §1, §2, §3
An Optimax microtiter plate reader (Molecular Devices, Sunnyvale, Calif.) at 405 nm wavelength was used to measure the optical density of the suspension in each well. Plates were read kinetically over 24 h. The temperature was maintained at 35° C. All results reflect the average optical density measurements of four microtiter wells. Treatments were prepared in sterile RO at the inclusion levels noted in Tables 1-2. […]

Test [4] deals with Salmonella Enteritidis (ATCC 13076). The test is described as follows: microbe, parasite or virus in culture. The conditions noted are these: Salmonella enterica, ATCC13076|ENTERITIDIS, 24 h, read-out: Minimum Inhibitory Concentration (MIC). The procedure: A Petroff Hausser counting chamber was used to determine the level of inoculum.
An Optimax microtiter plate reader (Molecular Devices, Sunnyvale, Calif.) at 405 nm wavelength was used to measure the optical density of the suspension in each well. Plates were read kinetically over 24 h. The temperature was maintained at 35° C. All results reflect the average optical density measurements of four microtiter wells. […] A 100 μl aliquot of test organism and a 100 μl aliquot of experimental treatment were dispensed into individual microtiter plate wells.

The test system is the same in test [5]. The test is described as follows: Microtiter plate assay, CPC and acetic acid (Experiment 4). In kind it is cell-based. To be noted: S. Enteritidis, acetic acid treatment alone. The procedure: Test inocula were prepared to achieve a 10^6 cfu/ml suspension of bacterial cells. A Petroff Hausser counting chamber was used to determine the level of inoculum.
as §4, with “Table 1.” for “Tables 1-2.”, “NB” for “NB or BHI”

In test [6] the test system is Listeria monocytogenes (ATCC 15313). The test is described as follows: Microtiter plate assay, CPC and propionic acid, abbreviated 4×4 matrix (Experiment 2). Type of test: cell-based. The conditions noted are these: L. monocytogenes. As to the method: as §1, §2, §3, §4
Test [7] relates to Salmonella Enteritidis (ATCC 13076). The test is described as follows: Microtiter plate assay, CPC and mixed organic acids (Experiment 3). Type of test: cell-based. The procedure: (§5) Fifteen formulations were prepared using the incomplete 4×4 matrix design in Table 8.
(§6) Two test organisms—Salmonella Enteritidis (ATCC 13076) and E. coli O157:H7 (ATCC 35150)—were screened. Salmonella Enteritidis was grown aerobically in Nutrient Broth (NB) for 24 h at 37° C. E. coli was grown in NB for 6 h at 37° C. Test inocula were prepared to achieve a 10^6 cfu/ml suspension of bacterial cells. A Petroff Hausser counting chamber was used to determine the level of inoculum.
(§7) An Optimax microtiter plate reader (Molecular Devices, Sunnyvale, Calif.) at 405 nm wavelength was used to measure the optical density of the suspension in each well. Plates were read kinetically over 24 h. The temperature was maintained at 35° C. All results reflect the average optical density measurements of four microtiter wells. Treatments were prepared in sterile RO at the inclusion levels noted in Table 1. A 100 μl aliquot of test organism and a 100 μl aliquot of experimental treatment were dispensed into individual microtiter plate wells. Bacteria cultures were diluted in Nutrient Broth (NB) prior to inoculation into the wells. Positive controls consisting of 100 μl of test organism in NB and 100 μl of sterile water and a negative control consisting of 100 μl of NB (no organisms) and 100 μl of sterile water were also used.

Test [8] has as its system E. coli O157:H7 (ATCC 35150). Described as above. Type of test: cell-based. The procedure:
as §5, §6, §7

Regarding `CCC(=O)O` [propionic acid], the “concentration that completely inhibited growth” value in test [1] (E. coli, propionic acid treatment alone) amounted to 250 ppm. Also, the “concentration sufficient to inhibit growth” value in test [2] is 250 ppm. Further, the “concentration shown to inhibit growth” value in test [3] (propionic acid alone, previous experimentation) is listed as 250 ppm.

For `C=O` [37% formaldehyde, formaldehyde], in test [4], the MIC is roughly 50 µg/mL (≈ 1670 µM).

Take `CC(=O)O` [acetic acid]: the “concentration that completely inhibited growth” value in test [5] was 250 ppm.

In the case of `CCCCCCCCCCCCCCCC[n+]1ccccc1` [CPC, Cetylpyridinium chloride], the “propionic acid substituted by 1 ppm CPC” value is listed as 50 ppm in test [1] (E. coli O157:H7), greater than 200 ppm in test [6] and “approximately 200 ppm” in test [3]. Further, the “mixed acids substituted by 1 ppm CPC” value in test [7] stood at 50 ppm. The “mixed organic acids substituted by 1 ppm CPC” value in test [8] is on record as 50 ppm.
